Measurements reported in ChEMBL document CHEMBL4118101 (Bioorg Med Chem, 2018).
Values after ≈ are worked out from the molar mass of the structure shown. Active and inactive are the calls of the source. No cut-off for these calls is given here.

Experiments:
Erythrocyte = assay: (§1) Hemolytic activity in mouse RBC at 62.5 ug/ml after 1 hr relative to control; type: ADME, cell-based; details: erythrocyte, 1 h
Cryptococcus neoformans [1] = assay: Antifungal activity against Cryptococcus neoformans isolate CN2 measured after 48 hrs by CLSI M27-A3 protocol based method; type: functional
Candida albicans [2] = assay: Antifungal activity against Candida albicans ATCC 64124 measured after 48 hrs by CLSI M27-A3 protocol based method; type: functional
Candida albicans [3] = assay: Antifungal activity against fluconazole/ITC-susceptible Candida albicans ATCC MYA-2876 measured after 48 hrs by CLSI M27-A3 protocol based method; type: functional
Candida albicans [4] = assay: Antifungal activity against fluconazole/ITC-resistant Candida albicans ATCC 90819 measured after 48 hrs by CLSI M27-A3 protocol based method; type: functional
Candida albicans [5] = assay: Antifungal activity against fluconazole/ITC-susceptible Candida albicans ATCC MYA-2310 measured after 48 hrs by CLSI M27-A3 protocol based method; type: functional
Candida albicans [6] = assay: Antifungal activity against fluconazole/ITC-resistant Candida albicans ATCC MYA-1237 measured after 48 hrs by CLSI M27-A3 protocol based method; type: functional
Candida albicans [7] = assay: Antifungal activity against fluconazole/ITC-resistant Candida albicans ATCC MYA-1003 measured after 48 hrs by CLSI M27-A3 protocol based method; type: functional
Nakaseomyces glabratus [8] = assay: Antifungal activity against Candida glabrata ATCC 2001 measured after 48 hrs by CLSI M27-A3 protocol based method; type: functional, CBS 138
Pichia kudriavzevii = assay: Antifungal activity against Candida krusei ATCC 6258 measured after 48 hrs by CLSI M27-A3 protocol based method; type: functional
Candida parapsilosis [9] = assay: Antifungal activity against Candida parapsilosis ATCC 22019 measured after 48 hrs by CLSI M27-A3 protocol based method; type: functional
Aspergillus nidulans [10] = assay: Antifungal activity against Aspergillus nidulans ATCC 38163 measured after 48 hrs by CLSI M38-A2 protocol based method; type: functional; details: ATCC 38163, 48 h
Aspergillus terreus = assay: Antifungal activity against Aspergillus terreus ATCC MYA-3633 measured after 48 hrs by CLSI M38-A2 protocol based method; type: functional; details: ATCC MYA-3633, 48 h
Nakaseomyces glabratus [11] = assay: Antifungal activity against Candida glabrata isolate CG1 measured after 48 hrs by CLSI M27-A3 protocol based method; type: functional
Nakaseomyces glabratus [12] = assay: Antifungal activity against Candida glabrata isolate CG2 measured after 48 hrs by CLSI M27-A3 protocol based method; type: functional
Nakaseomyces glabratus [13] = assay: Antifungal activity against Candida glabrata isolate CG3 measured after 48 hrs by CLSI M27-A3 protocol based method; type: functional
Candida parapsilosis [14] = assay: Antifungal activity against Candida parapsilosis isolate CP1 measured after 48 hrs by CLSI M27-A3 protocol based method; type: functional
Candida parapsilosis [15] = assay: Antifungal activity against Candida parapsilosis isolate CP2 measured after 48 hrs by CLSI M27-A3 protocol based method; type: functional
Cryptococcus neoformans [16] = assay: Antifungal activity against Cryptococcus neoformans isolate CN3 measured after 48 hrs by CLSI M27-A3 protocol based method; type: functional
Candida parapsilosis [17] = assay: Antifungal activity against Candida parapsilosis isolate CP3 measured after 48 hrs by CLSI M27-A3 protocol based method; type: functional
Candida albicans [18] = assay: Antifungal activity against Candida albicans ATCC 10231 measured after 48 hrs in presence of 10% FBS by CLSI M27-A3 protocol based method; type: functional
Candida parapsilosis [19] = assay: Antifungal activity against Candida parapsilosis ATCC 22019 measured after 48 hrs in presence of 10% FBS by CLSI M27-A3 protocol based method; type: functional
Aspergillus nidulans [20] = assay: Antifungal activity against Aspergillus nidulans ATCC 38163 measured after 48 hrs in presence of 10% FBS by CLSI M38-A2 protocol based method; type: functional; details: ATCC 38163, 48 h
Candida albicans [21] = assay: Fungistatic activity against Candida albicans ATCC 10231 at 4 times MIC incubated for 24 hrs by time kill assay; type: functional, organism-based
Candida parapsilosis [22] = assay: Fungistatic activity against Candida parapsilosis ATCC 22019 up to 4 times MIC incubated for 24 hrs by time kill assay; type: functional, organism-based
[23] = Hemolytic activity in mouse RBC at 0.48 ug/ml after 1 hr relative to control; type: ADME, cell-based, Erythrocyte; details: mouse red blood cells (erythrocytes), read-out: Activity
[24] = Hemolytic activity in mouse RBC at […] ug/ml after 1 hr relative to control; type: ADME, cell-based, Erythrocyte; details: mouse red blood cells (erythrocytes), read-out: Activity
[25] = Hemolytic activity in mouse RBC at 1.95 ug/ml after 1 hr relative to control; type: ADME, cell-based, Erythrocyte; details: mouse red blood cells (erythrocytes), at 1.95 µg/mL, read-out: Activity
[26] = Hemolytic activity in mouse RBC at 3.9 ug/ml after 1 hr relative to control; type: ADME, cell-based, Erythrocyte; details: mouse red blood cells (erythrocytes), read-out: Activity
[27] = Hemolytic activity in mouse RBC at 7.8 ug/ml after 1 hr relative to control; type: ADME, cell-based, Erythrocyte; details: mouse red blood cells (erythrocytes), read-out: Activity
Candida albicans [28] = assay: Induction of membrane permeabilization in Candida albicans ATCC 10231 assessed as membrane disruption at 4 times MIC after 1 hr by propidium iodide staining based fluorescence microscopy; type: functional, organism-based
Candida albicans [29] = assay: Inhibition of Candida albicans ATCC 10231 ERG11 assessed as ergosterol composition of total sterols at 0.12 ug/ml incubated for 10 mins followed by saponification for 2 hrs by GC-MS method (reference value: 100%); parameters: scale not given: the % may be the effect or the level left
Candida albicans [30] = assay: Inhibition of Candida albicans ATCC 10231 ERG11 assessed as lanosterol composition of total sterols at 0.12 ug/ml incubated for 10 mins followed by saponification for 2 hrs by GC-MS method relative to control; parameters: scale not given: the % may be the effect or the level left
Candida albicans [31] = assay: Inhibition of Candida albicans ATCC 10231 ERG11 assessed as eburicol composition of total sterols at 0.12 ug/ml incubated for 10 mins followed by saponification for 2 hrs by GC-MS method relative to control; parameters: scale not given: the % may be the effect or the level left
Candida albicans [32] = assay: Inhibition of Candida albicans ATCC 10231 ERG11 assessed as 14alphamethyl ergosta-8,24(28)-diene-3beta,6alpha-diol composition of total sterols at 0.12 ug/ml incubated for 10 mins followed by saponification for 2 hrs by GC-MS method relative to control; parameters: scale not given: the % may be the effect or the level left
[33] = as §1; type: ADME, cell-based, Erythrocyte; details: mouse red blood cells (erythrocytes), read-out: Activity
Candida albicans [34] = assay: Antifungal activity against Candida albicans ATCC 10231 measured after 48 hrs by CLSI M27-A3 protocol based method; type: functional; details: ATCC 10231, 48 h
Aspergillus flavus = assay: Antifungal activity against Aspergillus flavus ATCC MYA-3631 measured after 48 hrs by CLSI M38-A2 protocol based method; type: functional; details: ATCC MYA-3631, 48 h
Cryptococcus neoformans [35] = assay: Antifungal activity against Cryptococcus neoformans isolate CN1 measured after 48 hrs by CLSI M27-A3 protocol based method; type: functional; details: isolate CN1, 48 h
[36] = Hemolytic activity in mouse RBC at 31.3 ug/ml after 1 hr relative to control; type: ADME, cell-based, Erythrocyte; details: mouse red blood cells (erythrocytes), at 31.3 µg/mL, read-out: Activity
HEK293 = assay: Cytotoxicity against HEK293 cells up to 31 ug/ml after 24 hrs by resazurin based assay; type: cell-based; details: human, hek293, 24 h
BEAS-2B = assay: Cytotoxicity against human BEAS2B cells at 31 ug/ml after 24 hrs by resazurin based assay; type: cell-based
A549 = assay: Cytotoxicity against human A549 cells at 15.5 ug/ml after 24 hrs by resazurin based assay; type: cell-based; details: a549, 24 h
[37] = Nakaseomyces glabratus, 48 h, read-out: MIC

C[C@@H](c1ncncc1F)[C@](O)(Cn1cncn1)c1ccc(F)cc1F [VORICONAZOLE]
Activity (Erythrocyte): 100%
MIC (Cryptococcus neoformans [1]): 2.76 µM (≈ 0.964 µg/mL)
MIC (Candida albicans [2]): 11.2 µM (≈ 3.91 µg/mL)
MIC=<50 (Candida albicans [3]): 5.6 µM (≈ 1.96 µg/mL)
MIC (Candida albicans [4]): 5.6 µM (≈ 1.96 µg/mL)
MIC (Candida albicans [5]): 2.8 µM (≈ 0.978 µg/mL)
MIC (Candida albicans [6]): 22.3 µM (≈ 7.79 µg/mL)
MIC (Candida albicans [7]): 5.6 µM (≈ 1.96 µg/mL)
MIC (Nakaseomyces glabratus [8]): 0.17 to 0.69 µM
MIC=<50 (Pichia kudriavzevii): 0.34 µM (≈ 0.119 µg/mL)
MIC=<50 (Candida parapsilosis [9]): <0.06 µM
MIC (Aspergillus nidulans [10]): 0.34 µM (≈ 0.119 µg/mL)
MIC (Aspergillus terreus): 0.34 µM (≈ 0.119 µg/mL)
MIC (Nakaseomyces glabratus [11]): 2.76 µM (≈ 0.964 µg/mL)
MIC (Nakaseomyces glabratus [12]): 11.2 µM (≈ 3.91 µg/mL)
MIC (Nakaseomyces glabratus [13]): >89.9 µM
MIC=<50 (Candida parapsilosis [14]): <0.06 µM
MIC=<50 (Candida parapsilosis [15]): <0.06 µM
MIC (Cryptococcus neoformans [16]): 0.35 µM (≈ 0.122 µg/mL)
MIC=<50 (Candida parapsilosis [17]): <0.06 µM
MIC=<50 (Candida albicans [18]): 0.48 µg/mL
MIC=<50 (Candida parapsilosis [19]): 0.015 µg/mL
MIC (Aspergillus nidulans [20]): 0.12 µg/mL
Activity (Candida albicans [21]): Active
Activity (Candida parapsilosis [22]): Active
hemolysis at 1 h, 0.48 ug/ml [23]: 9%
hemolysis at 1 h, 0.975 ug/ml [24]: 10%
hemolysis at 1 h, 15.6 ug/ml [24]: 3%
hemolysis at 1 h, 1.95 ug/ml [25]: 6%
hemolysis at 1 h, 3.9 ug/ml [26]: 7%
hemolysis at 1 h, 7.8 ug/ml [27]: 11%
Activity (Candida albicans [28]): inactive
Activity (Candida albicans [29]): 50.8%
Activity (Candida albicans [30]): 15.2%
Activity (Candida albicans [31]): 1.73%
Activity (Candida albicans [32]): 9.86%

CCCCCCCCNCC(O)(Cn1cncn1)c1ccc(F)cc1F (configuration not stated)
hemolysis at 1 h, 62.5 ug/ml [33]: 78%
MIC (Cryptococcus neoformans [1]; Cryptococcus neoformans, isolate CN2, 48 h, read-out: MIC): 10.6 µM (≈ 3.88 µg/mL)
MIC (Candida albicans [34]): 2.7 µM (≈ 0.989 µg/mL)
MIC (Candida albicans [2]; Candida albicans, ATCC 64124, 48 h, read-out: MIC): > 85.4 µM
MIC (Candida albicans [3]; Candida albicans, ATCC MYA-2876, 48 h): 85.4 µM (≈ 31.3 µg/mL)
MIC (Candida albicans [4]; Candida albicans, ATCC 90819, 48 h, read-out: MIC): 21.3 µM (≈ 7.81 µg/mL)
MIC (Candida albicans [5]; Candida albicans, ATCC MYA-2310, 48 h, read-out: MIC): 85.4 µM (≈ 31.3 µg/mL)
MIC (Candida albicans [6]; Candida albicans, ATCC MYA-1237, 48 h, read-out: MIC): 42.6 µM (≈ 15.6 µg/mL)
MIC (Candida albicans [7]; Candida albicans, ATCC MYA-1003, 48 h, read-out: MIC): 85.4 µM (≈ 31.3 µg/mL)
MIC (Nakaseomyces glabratus [8]; Nakaseomyces glabratus, CBS 138, 48 h, read-out: MIC): 2.7 to 21.3 µM (≈ 0.989 to 7.81 µg/mL)
MIC (Pichia kudriavzevii; Pichia kudriavzevii, ATCC 6258, 48 h): 2.7 µM (≈ 0.989 µg/mL)
MIC (Candida parapsilosis [9]; Lodderomyces parapsilosis, ATCC 22019, 48 h): 0.16 µM (≈ 0.0586 µg/mL)
MIC (Aspergillus nidulans [10]): 5.3 µM (≈ 1.94 µg/mL)
MIC (Aspergillus flavus): > 85.4 µM
MIC (Aspergillus terreus): 42.6 µM (≈ 15.6 µg/mL)
MIC (Nakaseomyces glabratus [11]; [37]): 21.3 µM (≈ 7.81 µg/mL)
MIC (Nakaseomyces glabratus [12]; Nakaseomyces glabratus, isolate CG2, 48 h, read-out: MIC): 2.7 µM (≈ 0.989 µg/mL)
MIC (Nakaseomyces glabratus [13]; [37]): 42.6 µM (≈ 15.6 µg/mL)
MIC (Candida parapsilosis [14]; Lodderomyces parapsilosis, isolate CP1, 48 h): 1.3 µM (≈ 0.476 µg/mL)
MIC (Candida parapsilosis [15]; Lodderomyces parapsilosis, isolate CP2, 48 h): 0.33 µM (≈ 0.121 µg/mL)
MIC (Cryptococcus neoformans [35]): 5.3 µM (≈ 1.94 µg/mL)
MIC (Cryptococcus neoformans [16]; Cryptococcus neoformans, isolate CN3, 48 h, read-out: MIC): 10.6 µM (≈ 3.88 µg/mL)
MIC (Candida parapsilosis [17]; Lodderomyces parapsilosis, isolate CP3, 48 h): 0.65 µM (≈ 0.238 µg/mL)
Activity (Candida albicans [21]): Active
Activity (Candida parapsilosis [22]): Active
hemolysis at 1 h, 0.48 ug/ml [23]: 2%
hemolysis at 1 h, 0.975 ug/ml [24]: 2%
hemolysis at 1 h, 15.6 ug/ml [24]: 3%
hemolysis at 1 h, 1.95 ug/ml [25]: 0%
hemolysis at 1 h, 3.9 ug/ml [26]: 2%
hemolysis at 1 h, 7.8 ug/ml [27]: 0%
hemolysis at 1 h, 31.3 ug/ml [36]: 9%
Activity (HEK293): Non-Toxic
Activity (Candida albicans [28]): inactive
Activity (BEAS-2B): Non-Toxic
Activity (A549): Non-Toxic
